Laboratory results: ChEMBL document CHEMBL2413072, “Synthesis and in vitro anticancer studies of novel C-2 arylidene congeners of lantadenes” (2013)

Key:
Format in all cases: functional
PC-3 [1] = experiment: Growth inhibition of human PC3 cells assessed as cell growth at 10^-8 M by sulforhodamine B assay; settings: read-out: Activity
HCT-15 [2] = experiment: Growth inhibition of human HCT15 cells assessed as cell growth at 10^-8 M by sulforhodamine B assay; settings: read-out: Activity
KM12 [3] = experiment: Growth inhibition of human KM12 cells assessed as cell growth at 10^-4 M by sulforhodamine B assay; settings: read-out: Activity
A549 [4] = experiment: Growth inhibition of human A549/ATCC cells assessed as cell growth at 10^-7 M by sulforhodamine B assay; settings: read-out: Activity
SR = experiment: Growth inhibition of human SR cells by sulforhodamine B assay
UACC-62 = experiment: Growth inhibition of human UACC62 cells assessed as cell growth at 10^-6 M by sulforhodamine B assay; settings: read-out: Activity
OVCAR-8 [5] = experiment: Growth inhibition of human OVCAR8 cells by sulforhodamine B assay
NCI-H460 = experiment: Growth inhibition of human NCI-H460 cells assessed as cell growth at 10^-7 M by sulforhodamine B assay; settings: read-out: Activity
NCI-H322M = experiment: Growth inhibition of human NCI-H322M cells assessed as cell growth at 10^-4 M by sulforhodamine B assay; settings: read-out: Activity
MDA-MB-468 = experiment: Growth inhibition of human MDA-MB-468 cells assessed as cell growth at 10^-4 M by sulforhodamine B assay; settings: read-out: Activity
SF-295 = experiment: Growth inhibition of human SF295 cells assessed as cell growth at 10^-6 M by sulforhodamine B assay; settings: read-out: Activity
MDA-MB-435 = experiment: Growth inhibition of human MDA-MB-435 cells by sulforhodamine B assay
SNB-19 = experiment: Growth inhibition of human SNB19 cells assessed as cell growth at 10^-4 M by sulforhodamine B assay; settings: read-out: Activity
MCF7 [6] = experiment: Growth inhibition of human MCF7 cells assessed as cell growth at 10^-4 M by sulforhodamine B assay; settings: read-out: Activity
COLO 205 [7] = experiment: Growth inhibition of human COLO205 cells assessed as cell growth at 10^-7 M by sulforhodamine B assay; settings: read-out: Activity
MCF7 [8] = experiment: Growth inhibition of human MCF7 cells assessed as cell growth at 10^-8 M by sulforhodamine B assay; settings: read-out: Activity
KM12 [9] = experiment: Growth inhibition of human KM12 cells assessed as cell growth at 10^-6 M by sulforhodamine B assay; settings: read-out: Activity
HOP-92 [10] = experiment: Growth inhibition of human HOP92 cells assessed as cell growth at 10^-6 M by sulforhodamine B assay; settings: read-out: Activity
SW-620 = experiment: Growth inhibition of human SW620 cells assessed as cell growth at 10^-4 M by sulforhodamine B assay; settings: read-out: Activity
HCT-116 = experiment: Growth inhibition of human HCT116 cells assessed as cell growth at 10^-7 M by sulforhodamine B assay; settings: read-out: Activity
HT-29 = experiment: Growth inhibition of human HT-29 cells assessed as cell growth at 10^-8 M by sulforhodamine B assay; settings: read-out: Activity
OVCAR-8 [11] = experiment: Growth inhibition of human OVCAR8 cells assessed as cell growth at 10^-6 M by sulforhodamine B assay; settings: read-out: Activity
NCI-H226 = experiment: Growth inhibition of human NCI-H226 cells assessed as cell growth at 10^-6 M by sulforhodamine B assay; settings: read-out: Activity
SK-MEL-28 = experiment: Growth inhibition of human SK-MEL-28 cells assessed as cell growth at 10^-6 M by sulforhodamine B assay; settings: read-out: Activity
UACC-257 [12] = experiment: Growth inhibition of human UACC257 cells assessed as cell growth at 10^-6 M by sulforhodamine B assay; settings: read-out: Activity
[13] = Growth inhibition of human NCI-ADR-RES cells by sulforhodamine B assay
IGROV-1 = experiment: Growth inhibition of human IGROV1 cells assessed as cell growth at 10^-8 M by sulforhodamine B assay; settings: read-out: Activity
SN12C [14] = experiment: Growth inhibition of human SN12C cells assessed as cell growth at 10^-4 M by sulforhodamine B assay; settings: read-out: Activity
TK-10 = experiment: Growth inhibition of human TK10 cells assessed as cell growth at 10^-7 M by sulforhodamine B assay; settings: read-out: Activity
SNB-75 = experiment: Growth inhibition of human SNB75 cells assessed as cell growth at 10^-4 M by sulforhodamine B assay; settings: read-out: Activity
HOP-92 [15] = experiment: Growth inhibition of human HOP92 cells assessed as cell growth at 10^-4 M by sulforhodamine B assay; settings: read-out: Activity
K562 = experiment: Growth inhibition of human K562 cells assessed as cell growth at 10^-6 M by sulforhodamine B assay; settings: read-out: Activity
SN12C [16] = experiment: Growth inhibition of human SN12C cells assessed as cell growth at 10^-8 M by sulforhodamine B assay; settings: read-out: Activity
ACHN [17] = experiment: Growth inhibition of human ACHN cells assessed as cell growth at 10^-7 M by sulforhodamine B assay; settings: read-out: Activity
PC-3 [18] = experiment: Growth inhibition of human PC3 cells assessed as cell growth at 10^-6 M by sulforhodamine B assay; settings: read-out: Activity
COLO 205 [19] = experiment: Growth inhibition of human COLO205 cells by sulforhodamine B assay
ACHN [20] = experiment: Growth inhibition of human ACHN cells assessed as cell growth at 10^-6 M by sulforhodamine B assay; settings: read-out: Activity
HCT-15 [21] = experiment: Growth inhibition of human HCT15 cells assessed as cell growth at 10^-7 M by sulforhodamine B assay; settings: read-out: Activity
SN12C [22] = experiment: Growth inhibition of human SN12C cells assessed as cell growth at 10^-7 M by sulforhodamine B assay; settings: read-out: Activity
A549 [23] = experiment: Growth inhibition of human A549/ATCC cells assessed as cell growth at 10^-8 M by sulforhodamine B assay; settings: read-out: Activity
CAKI-1 = experiment: Growth inhibition of human CAKI-1 cells assessed as cell growth at 10^-4 M by sulforhodamine B assay; settings: read-out: Activity
UACC-257 [24] = experiment: Growth inhibition of human UACC257 cells by sulforhodamine B assay
SF-268 = experiment: Growth inhibition of human SF268 cells assessed as cell growth at 10^-7 M by sulforhodamine B assay; settings: read-out: Activity
[25] = read-out: LC50 (the source's name)
[26] = read-out: pLC50 (the source's name) (converted)

Structure (SMILES): C/C=C(/C)C(=O)O[C@@H]1CC(C)(C)C[C@H]2C3=CC[C@@H]4[C@@]5(C)CCC(=O)C(C)(C)[C@@H]5CC[C@@]4(C)[C@]3(C)CC[C@@]12C(=O)O [LANTADENE A]
- growth at 0.01 µM (PC-3 [1]): 93%
- growth at 0.01 µM (HCT-15 [2]): 100%
- growth at 100 µM (KM12 [3]): 20%
- growth at 0.1 µM (A549 [4]): 90%
- GI50 (SR; read-out: GI50): 3 µM
- CC50 (SR; [25]): > 100 µM
- TGI (SR; read-out: TGI): > 100 µM
- GI50 (SR; read-out: pGI50 (converted)): 3.02 µM
- CC50 (SR; [26]): > 100 µM
- TGI (SR; read-out: pTGI (converted)): > 100 µM
- growth at 1 µM (UACC-62): 70%
- GI50 (OVCAR-8 [5]; read-out: GI50): 4.97 µM
- CC50 (OVCAR-8 [5]; [25]): > 100 µM
- TGI (OVCAR-8 [5]; read-out: TGI): > 100 µM
- GI50 (OVCAR-8 [5]; read-out: pGI50 (converted)): 5.01 µM
- CC50 (OVCAR-8 [5]; [26]): > 100 µM
- TGI (OVCAR-8 [5]; read-out: pTGI (converted)): > 100 µM
- growth at 0.1 µM (NCI-H460): 98%
- growth at 100 µM (NCI-H322M): 17%
- growth at 100 µM (MDA-MB-468): 1%
- growth at 1 µM (SF-295): 88%
- GI50 (MDA-MB-435; read-out: GI50): 5.24 µM
- CC50 (MDA-MB-435; [25]): > 100 µM
- TGI (MDA-MB-435; read-out: TGI): > 100 µM
- GI50 (MDA-MB-435; read-out: pGI50 (converted)): 5.25 µM
- CC50 (MDA-MB-435; [26]): > 100 µM
- TGI (MDA-MB-435; read-out: pTGI (converted)): > 100 µM
- growth at 100 µM (SNB-19): 23%
- growth at 100 µM (MCF7 [6]): 15%
- growth at 0.1 µM (COLO 205 [7]): 110%
- growth at 0.01 µM (MCF7 [8]): 94%
- growth at 1 µM (KM12 [9]): 84%
- growth at 1 µM (HOP-92 [10]): 56%
- growth at 100 µM (SW-620): 22%
- growth at 0.1 µM (HCT-116): 90%
- growth at 0.01 µM (HT-29): 99%
- growth at 1 µM (OVCAR-8 [11]): 95%
- growth at 1 µM (NCI-H226): 87%
- growth at 1 µM (SK-MEL-28): 95%
- growth at 1 µM (UACC-257 [12]): 91%
- GI50 ([13]; read-out: GI50): 5.12 µM
- CC50 [13, 25]: > 100 µM
- TGI ([13]; read-out: TGI): > 100 µM
- GI50 ([13]; read-out: pGI50 (converted)): 5.13 µM
- CC50 [13, 26]: > 100 µM
- TGI ([13]; read-out: pTGI (converted)): > 100 µM
- growth at 0.01 µM (IGROV-1): 108%
- growth at 100 µM (SN12C [14]): 15%
- growth at 0.1 µM (TK-10): 102%
- growth at 100 µM (SNB-75): 33%
- growth at 100 µM (HOP-92 [15]): -35%
- growth at 1 µM (K562): 87%
- growth at 0.01 µM (SN12C [16]): 97%
- growth at 0.1 µM (ACHN [17]): 107%
- growth at 1 µM (PC-3 [18]): 68%
- GI50 (COLO 205 [19]; read-out: GI50): 2.64 µM
- LC50 (COLO 205 [19]; read-out: LC50): 89.7 µM
- TGI (COLO 205 [19]; read-out: TGI): 6.8 µM
- GI50 (COLO 205 [19]; read-out: pGI50 (converted)): 2.63 µM
- LC50 (COLO 205 [19]; read-out: pLC50 (converted)): 89.1 µM
- TGI (COLO 205 [19]; read-out: pTGI (converted)): 6.76 µM
- growth at 1 µM (ACHN [20]): 92%
- growth at 0.1 µM (HCT-15 [21]): 106%
- growth at 0.1 µM (SN12C [22]): 95%
- growth at 0.01 µM (A549 [23]): 94%
- growth at 100 µM (CAKI-1): 20%
- GI50 (UACC-257 [24]; read-out: GI50): 4.81 µM
- CC50 (UACC-257 [24]; [25]): > 100 µM
- TGI (UACC-257 [24]; read-out: TGI): > 100 µM
- GI50 (UACC-257 [24]; read-out: pGI50 (converted)): 4.79 µM
- CC50 (UACC-257 [24]; [26]): > 100 µM
- TGI (UACC-257 [24]; read-out: pTGI (converted)): > 100 µM
- growth at 0.1 µM (SF-268): 101%
